{"source": "patent US20060216350A1", "about": "“Ganglionic blocking agents for the treatment of epithelial diseases” (priority 2005, published 2006)", "origin": "cited, not measured here", "system": "hand warts", "settings": "patients with hand warts; Sterling et al. 2001"}
{"smiles": "O=C(O)c1ccccc1O", "note": "[Salicylic acid]", "values": [{"measurement": "clearance of warts, % of patients", "value": 67, "unit": "%"}]}
